Assay results as given in PubChem BioAssay (NCI).
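Grown in 96-well plates, cells were treated for 48 hours with each compound at five concentrations. Insufficient inhibition: endpoint recorded as highest concentration tested. The concentration for 50% growth inhibition is given as GI50. TGI denotes the concentration required for complete inhibition of growth.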

Tests used:
Test in all cases: NCI-60 cell line screen, 48 h
SNB-75 CNS = system: SNB-75 CNS
SK-MEL-5 melanoma = system: SK-MEL-5 melanoma
DU-145 prostate = system: DU-145 prostate
RXF 393 renal = system: RXF 393 renal
TK-10 renal = system: TK-10 renal
UO-31 renal = system: UO-31 renal
OVCAR-4 ovarian = system: OVCAR-4 ovarian
HCC-2998 colon = system: HCC-2998 colon
IGROV1 ovarian = system: IGROV1 ovarian
HS 578T breast = system: HS 578T breast

Row | Structure (SMILES) | GI50 (SNB-75 CNS) [µM] | TGI (SNB-75 CNS) [µM] | GI50 (SK-MEL-5 melanoma) [µM] | TGI (SK-MEL-5 melanoma) [µM] | GI50 (DU-145 prostate) [µM] | TGI (DU-145 prostate) [µM] | GI50 (RXF 393 renal) [µM] | TGI (RXF 393 renal) [µM] | GI50 (TK-10 renal) [µM] | TGI (TK-10 renal) [µM] | GI50 (UO-31 renal) [µM] | TGI (UO-31 renal) [µM] | GI50 (OVCAR-4 ovarian) [µM] | TGI (OVCAR-4 ovarian) [µM] | TGI (HCC-2998 colon) [µM] | TGI (IGROV1 ovarian) [µM] | GI50 (HCC-2998 colon) [µM] | GI50 (IGROV1 ovarian) [µM] | TGI (HS 578T breast) [µM]
1 | COc1ccc2c(c1)c(-c1nc(-c3cn(C)c4ncccc34)cs1)cn2CCCCN1CCCCC1 | 1.07 | 2.28 | 1.71 | 3.08 | 1.74 | 3.12 | 1.33 | 2.82 | 1.53 | 2.95 | 1.43 | 2.77 | 1.83 | 3.39 |  |  |  |  | 
2 | Cc1cc(Br)ccc1N=NC1C(=O)ON=C1c1ccccc1 (centres undefined) |  | > 100 |  | > 100 |  |  |  | > 100 |  | > 100 |  | > 100 |  | > 100 | 76.4 | > 100 |  |  | 
3 | CC(=O)Nc1ccc(/C=C/C(=O)c2sc(-n3nc(-c4ccccc4)cc3-c3ccccc3)nc2C)cc1 | > 100 | > 100 |  | > 100 |  |  | > 100 | > 100 | > 100 | > 100 | > 100 | > 100 |  | > 100 | > 100 | > 100 | > 100 | > 100 | 
4 | BrC(/C=N/Nc1nnc(-c2ccccc2)c(-c2ccccc2)n1)C(Br)c1ccccc1 (centres undefined) |  | 78.6 |  | 57.9 |  |  |  | > 100 |  | > 100 |  | 60.5 |  |  | > 100 | > 100 |  |  | 
5 | O=c1ccn([C@@H]2C[C@H](CO)CS(=O)C2)c(=O)[nH]1 (some centres undefined) |  | > 100 |  | > 100 |  |  |  |  |  | > 100 |  | > 100 |  | > 100 | > 100 | > 100 |  |  | 
6 | CC(=O)[O-].O=C([CH-]C(=O)c1ccccc1)c1ccccc1.O=C([CH-]C(=O)c1ccccc1)c1ccccc1.[Dy+3] | 3.33 | 8.46 | 6.5 | 20.9 |  |  | 6.84 | 34.7 | 27.4 | 86.5 | 8.35 | 32.5 | 16.5 | > 100 | 36.2 | 93.8 | 11.6 | 18.5 | 
7 | N#CC1(C2CC(=O)N(c3ccccc3)C2=O)CCCCC1=O (centres undefined) |  | > 100 |  | > 100 |  |  |  | > 100 |  | > 100 |  | > 100 |  | > 100 | > 100 | > 100 |  |  | 
8 | O=C(Nc1cc(Cl)ccc1Cl)c1cc2ccccc2oc1=O |  | 62.9 |  | > 100 |  |  |  | > 100 |  | > 100 |  |  |  |  |  | > 100 |  |  | 
9 | N#Cc1cccc(C2SCc3nc4ccccc4n32)c1 (centres undefined) |  |  |  | 65.2 |  |  |  | > 100 |  | > 100 |  | > 100 |  | > 100 |  | > 100 |  |  | 
10 | O=C(/C=C/c1c[nH]c2ccccc12)c1ccccc1O |  | 27.2 |  |  |  | 23.9 |  |  |  | 32.8 |  | 17.6 |  | 27 | 27.1 | 36.4 |  |  | 66.7
11 | O=C(NC(=Nc1ccccc1)SCCSC(=Nc1ccccc1)NC(=O)c1ccccc1)c1ccccc1 |  | > 100 |  | > 100 |  |  |  | 95.6 |  | > 100 |  | 88.2 |  | > 100 | > 100 | > 100 |  |  | 
12 | Cc1nc2ccccc2c(=O)n1/N=C(\N=Nc1ccc(Cl)cc1)c1ccc(N(C)C)cc1 |  |  |  | > 100 |  |  |  | > 100 |  | > 100 |  | > 100 |  |  |  | > 100 |  |  | 
13 | CC1(C)OC2OC(/C=C/[N+](=O)[O-])C3OC(C)(C)OC3C2O1 (centres undefined) |  | 34.8 |  | 31.7 |  |  |  | 5.99 |  | 9.56 |  | 34.8 |  | 30.9 | 31.1 | > 74.4 |  |  | 
14 | O=C1C(=C2C(=O)c3ccccc3[N+]2=O)N([O-])c2ccccc21 |  | 83.8 |  | 32.5 |  |  |  | 90.6 |  | 81.1 |  | > 100 |  | 31.7 |  | > 100 |  |  | 
15 | C=CC(C)(C)[C@@]12CC3C(=O)N[C@@H](Cc4ccccc4)C(=O)N3[C@@H]1N(C(C)=O)c1ccccc12 (some centres undefined) |  | > 100 |  | > 100 |  |  |  |  |  | > 100 |  | > 100 |  | 97.5 |  | > 100 |  |  | 
16 | Cc1c(Cl)ccc2[s+]snc12 |  | > 100 |  | 52.1 |  |  |  | 37.2 |  | > 100 |  | > 100 |  | > 100 | > 100 | > 100 |  |  | 
17 | CC(=O)NNc1nc(C)c(C(=O)NNC(=O)C(=O)Nc2ccc(C)cc2[N+](=O)[O-])s1 |  | > 100 |  | > 100 |  |  |  | > 100 |  | > 100 |  | > 100 |  | > 100 | > 100 | > 100 |  |  | 
18 | COc1cc(CC2c3cc(OC)c(OC)cc3CCN2C)c(C(=O)O)cc1OC (centres undefined) |  | > 100 |  | > 100 |  |  |  | > 100 |  | > 100 |  | > 100 |  |  | > 100 |  |  |  | 
